Assays:
[1] = test system: Sprague-Dawley rats, occlusion of middle cerebral artery; test: Transient focal cerebral ischemia (60 min MCAO), infarct volume; assay type: in vivo, rat
Protocol: Adult rats received transient cerebral ischemia by occluding right middle cerebral artery and both common carotid arteries for 60 min with intraperitoneal injections of vehicle or 50 mg/kg 2-Hydroxy-TTBA at 5 min, 30 min, or 1 hr after reperfusion. Infarct volume was analyzed 24 hr later after staining brain slices with 2% 2,3,5-triphenyltetrazolium chloride (TTC), mean ±SEM (n=8-11 rats per each condition). *, Significant difference from the vehicle control, p<0.05 using ANOVA and Student-Neuman-Keuls' test.
Adult rats received transient cerebral ischemia by occluding right middle cerebral artery and both common carotid arteries for 60 min with intraperitoneal injections of vehicle (control) or 50 or 100 mg/kg 2-Hydroxy-TTBA at 5 min after reperfusion. Infarct volume was analyzed 24 hr later after staining brain slices with 2% 2,3,5-triphenyltetrazolium chloride (TTC), mean ±SEM (n=7-8 rats per each condition). *, Significant difference from the vehicle control, p<0.05 using ANOVA and Student-Neuman-Keuls' test.
Adult rats received transient cerebral ischemia by occluding right middle cerebral artery and both common carotid arteries for 60 min, with intravenous injections of vehicle (control) or 5 mg/kg 2-Hydroxy-TTBA at 30 min after occlusion or 5 min, 30 min, 1 hr, 2 hr, or 4 hr after reperfusion. Infarct volume was analyzed 24 hr later, mean ±SEM (n=8-11 rats per each condition). *, Significant difference from the vehicle control, p<0.05 using ANOVA and Student-Neuman-Keuls' test.
Adult rats received transient cerebral ischemia by occluding right middle cerebral artery and both common carotid arteries for 60 min, with intravenous injections of vehicle (control) or 1, 2.5, 5, 10 or 20 mg/kg 2-Hydroxy-TTBA at 5 min after reperfusion. Infarct volume was analyzed 24 hr later, mean ±SEM (n=8-10 rats per each condition). *, Significant difference from the vehicle control, p<0.05 using ANOVA and Student-Neuman-Keuls' test.
Adult rats received transient cerebral ischemia by occluding right middle cerebral artery and both common carotid arteries for 60 min, with oral administrations of vehicle (control) or 10 or 20 mg/kg 2-Hydroxy-TTBA at 5 min after reperfusion. Infarct volume was analyzed 24 hr later, mean ±SEM (n=8-10 rats per each condition). *, Significant difference from the vehicle control, p<0.05 using ANOVA and Student-Neuman-Keuls' test.
Sprague-Dawley rats were anesthetized with chloral hydrate, and subjected to focal cerebral ischemia by occlusion of middle cerebral artery (MCAO) as previously described [Tamura et al., J. Cerebr. Blood Flow Metab. 1:53-60 (1981)]. Both common carotid arteries (CCAs) were exposed and right middle cerebral artery (rMCA) was exposed under the surgical microscope by making a 3 mm diameter craniotomy rostral to the foramen ovale. CCAs and rMCA were occluded with microclips. The clips were released 60 min later and restoration of blood flow in rMCA was observed under the microscope
Animals received MCAO for 60 min, alone or with administration of 2-Hydroxy-TTBA (50 mg/kg, i.p.) at indicated points of time after reperfusion. Saline was injected as a control. Animals were euthanized 24 hr later and brains removed and sectioned coronally into seven 2-mm slices in a brain matrix. […] The infarction area, outline in white, was measured (TINA image analysis system) and infarction volume was calculated by summing the infarct volume showing white of sequential 2-mm-thick section, mean ±SEM (n=8-12 rats/condition) (FIG. 8a). […]

[2] = test system: Mouse cortical cell cultures; test: FeCl2-induced free radical neurotoxicity in mixed cortical cell cultures (LDH assay); assay type: cell-based; details: continuous 50 μM FeCl2; LDH 24 hr later
Protocol: (§1) Mouse cortical cell cultures (DIV 12-14) were exposed to continuously to 50 μM Fe^2+, alone or with inclusion of 0.1-100 μM 2-Hydroxy-TTBA (●) or trolox (◯), a membrane-permeable form of vitamin E). Neuronal death was analyzed 24 hr later by measuring levels of LDH released into the bathing medium, mean ±SEM (n=9-12 culture wells per condition), scaled to mean LDH efflux value 24 hr after sham wash (=0) and continuous exposure to 500 μM NMDA (=100). *, Significant difference from the vehicle control, p<0.05 using ANOVA and Student-Neuman-Keuls' test.
as §1, with “alone (♦)” for “alone”, “1-30” for “0.1-100”, “2-Hydroxy-TTS (●), 2-Hydroxy-TTA (◯), 2-Chloro-TTP (▾), 2-Ethan-TTBA (∇), 2-Propan-TTBA (▪),” for “2-Hydroxy-TTBA (●)”, “2-Cyclohexan-TTBA (□).” for “trolox (◯), a membrane-permeable form of vitamin E).”
For mixed neuron-glia culture, mouse cerebral cortices were removed from brains of the 14-16 day-old-fetal mice (E14-16), gently triturated and plated on 24 well plates (2×10^5 cells/plate) precoated with 100 μg/ml poly-D-lysine and 4 μg/ml laminine. Cultures were maintained at 37° C. in a humidified 5% CO2 atmosphere. Plating media consist of Eagles minimal essential media (MEM, Earles salts, supplied glutamine-free) supplemented with 5% horse serum, 5% fetal bovine serum, 26.5 mM bicarbonate, 2 mM glutamine, and 21 mM glucose.
After 7-8 days in vitro (DIV 7-8), 10 μM cytosine arabinofuranoside (Ara-C) was included to halt overgrowth of glia. The drug treatment was carried on DIV 12-15 cortical cell culture. Overall neuronal cell injury was assessed by measuring amount of lactate dehydrogenase (LDH) released into the bathing medium 24 hr after neurotoxic insults as previously described [Koh and Choi, J Neurosci Methods 20:83-90, 1987].
Mixed cortical cell cultures (DIV 13-15) were continuously exposed to 50 μM FeCl2, which produces hydroxyl radical via a Fenton reaction, alone or with inclusion of 2-Hydroxy-TTBA, 2-Hydroxy-TTA, 2-Hydroxy-TTS, 2-Chloro-TTP, 2-Ethan-TTBA, 2-Propan-TTBA, 2-Cyclohexan-TTBA or trolox (a vitamin E analogue) at indicated doses. Neuronal cell death was analyzed 24 hr later by LDH assay as described above. *, Significant difference from the vehicle control (FeCl2), p<0.05 using ANOVA and Student-Neuman-Keuls' test.

[3] = intravenous, 5 min after reperfusion, 60 min MCAO

O=C(O)c1cc(NCc2c(F)c(F)c(C(F)(F)F)c(F)c2F)ccc1O [2-Hydroxy-TTBA, 2-hydroxy-5-(2,3,5,6-tetrafluoro-4-trifluoromethylbenzylamino)benzoic acid]
time after reperfusion up to which delayed injection significantly attenuated infarct volume ([1]; 5 mg/kg intravenous, 60 min MCAO, infarct volume 24 hr later): up to 4 hr | time after reperfusion up to which delayed administration significantly reduced infarct volume ([1]; 50 mg/kg i.p., 60 min MCAO, infarct volume 24 hr later): up to 1 hr | infarct volume after oral administration ([1]; 10 or 20 mg/kg p.o. at 5 min after reperfusion, 24 hr after 60 min MCAO): reduced infarct volume | intravenous doses at which protective effects were observed [1, 3]: higher than 2.5 mg/kg | lowest intravenous dose attenuating infarct volume [1, 3]: ≥ 1 mg/kg | prevention of FeCl2-induced free radical neurotoxicity [2]: prevented FeCl2-induced free radical neurotoxicity in a dose-dependent manner | strength relative to trolox in preventing free radical neurotoxicity [2]: 30 fold
